Laboratory results taken from US8962576B2, “Compositions and method for improving endothelial function and cardiovascular health” (Natreon, Inc., priority 2012, dated 2015).
Values joined by “and” are separate entries in the source; they are usually repeats but may differ in a detail not shown here. Equal values may be shown once.

Columns and labels:
Format in all cases: in vivo, human
[1] = tested on: Type 2 Diabetic Subjects; assay: Marker of endothelial function: reflection index (RI), study (c); settings: CAPROS 250 mg twice daily, Atorvastatin 10 mg daily, n = 20
From the text: (§1) A salbutamol (albuterol) challenge test employing digital volume plethysmography was used to assess endothelial function as reported by Chowienczyk et al., “Photoplethysmographic assessment of pulse wave reflection: blunted response to endothelium dependant beta 2-adrenergic vasodilation in type 2 diabetes mellitus,” J. Am. Coll. Cardiol. (1999 December) 34(7):2007-14; and Naidu, et al., “Comparison of two β2 adrenoceptor agonists by different routes of administration to assess human endothelial function,” Indian J. Pharmacol. (2007) 39:168-9. The patients were examined in supine position after 5 minutes of rest. A digital volume pulse (DVP) was obtained using a photo plethysmograph (Pulse Trace PCA2, PT200, Micro Medical, Gallingham, Kent, UK) transmitting infrared light at 940 nm, placed on the index finger of the right hand. The signal from the plethysmograph was digitized using a 12 bit analogue to digital converter with a sampling frequency of 100 Hz. DVP waveforms were recorded over 20 second period and the height of the late systolic/early diastolic portion of the DVP was expressed as a percentage of the amplitude of the DVP to yield the reflection index (RI), per the procedure described in detail by Millasseau et al., “Determination of age related increases in large artery stiffness by digital pulse contour analysis,” Clinical Science (2002) 103: 371-377. Three DVP recordings were taken, and measurements of reflection index (RI) were calculated and the mean value was determined. Patients were then administered 400 μg of salbutamol by inhalation. After 15 minutes three measurements of RI were obtained again and the difference in mean RI before and after administration of salbutamol was used for assessing endothelial function. A change of ≦6% in RI post-salbutamol was considered as endothelial dysfunction.
Study (c) design. […]

[2] = tested on: Type 2 Diabetic Subjects; assay: Biomarkers of oxidative stress (NO, MDA, Glutathione), study (a); settings: Sensoril or Capros 250 mg twice daily, Atorvastatin 10 mg at night; for Glutathione / MDA / NO: n = 10
Protocol: […]. (April 2004) 36(2): 76-79. Glutathione levels were determined as described in G. L. Ellman, Arch. Biochem. Biophys. (1959) 82: 70-77 (original determination). Nitric oxide levels were estimated spectrophotometrically as described in Miranda, et al., “A Rapid, Simple Spectrophotometric Method for Simultaneous Detection of Nitrate and Nitrite,” NITRIC OXIDE: Biology and Chemistry (2001) Vol. 5, No. 1, pp. 62-71.

[3] = tested on: Type 2 Diabetic Subjects; assay: Biomarkers of oxidative stress and hsCRP, study (c); settings: CAPROS 250 mg twice daily, Atorvastatin 10 mg daily, n = 20
Protocol: Malondialdehyde (MDA) levels were determined as described in Vidyasagar, et al., “Oxidative stress and antioxidant status in acute organophosphorous insecticide poisoning,” Indian J. Pharmacol. (April 2004) 36(2): 76-79. Glutathione levels were determined as described in G. L. Ellman, Arch. Biochem. Biophys. (1959) 82: 70-77 (original determination). Nitric oxide levels were estimated spectrophotometrically as described in Miranda, et al., “A Rapid, Simple Spectrophotometric Method for Simultaneous Detection of Nitrate and Nitrite,” NITRIC OXIDE: Biology and Chemistry (2001) Vol. 5, No. 1, pp. 62-71.
(§2) After screening, all the eligible subjects were randomized to receive either one of the four treatments for a duration of 12 weeks, as follows.
Nitric oxide, MDA, Glutathione (GSH) and levels thereof were estimated spectrophotometrically as described above, and HsCRP (high sensitivity C-reactive protein) by ELISA method.

[4] = tested on: Type 2 Diabetic Subjects; assay: Endothelial function: reflection index (RI), salbutamol challenge test, study (a); settings: Sensoril or Capros 250 mg twice daily, Atorvastatin 10 mg at night; for Abs Change in RI(%) Post Salbutamol challenge: n = 10
From the text: Procedure for Assessment of Endothelial Function by Determination of Reflection Index (RI).
as §1

[5] = tested on: Type 2 Diabetic Subjects; assay: Lipid profile, study (c); settings: CAPROS 250 mg twice daily, Atorvastatin 10 mg daily, n = 20
From the text: as §2
All the subjects had undergone complete physical examination, safety lab evaluations at baseline and at the end of the treatment. Samples were collected after an overnight fast of 12 hrs after the last dose of medication for determination of haemoglobin, HbA1c, blood urea and serum creatinine, liver function test, and lipid profile (Total cholesterol (TC), High density lipoprotein cholesterol (HDL-C), low density lipoprotein cholesterol (LDL-C)), and results obtained using appropriate standard techniques.

## CC(C)c1c(C(=O)Nc2ccccc2)c(-c2ccccc2)c(-c2ccc(F)cc2)n1CC[C@@H](O)C[C@@H](O)CC(=O)O [Atorvastatin]
[1]; 12 weeks
  Absolute change in RI: −8.35 ± 4.17%
[1]; Post TT, 12 weeks
  RI(%), Mean: −11.03$ %
[1]; Pre TT
  RI(%), Mean: −2.68%
[2]; Post treatment, 12 weeks
  Glutathione: 721.6 ± 116.9 µmol/L
  MDA: 2.13 ± 0.48 nmol/mL
  NO: 68.89 ± 11.54 µmol/L
[2]; Pre treatment
  Glutathione: 530.8 ± 168.4 µmol/L
  MDA: 3.48 ± 0.73 nmol/mL
  NO: 42.24 ± 6.771 µmol/L
[2]; after 12 weeks of treatment
  Mean % change in Glutathione: 51.77% and 51.77 ± 62.72%
  Mean % change in MDA: −38.05% and −38.05 ± 10.43%
  Mean % change in NO: 64.71% and 64.71 ± 27.25%
[3]; 12 weeks
  Absolute change in MDA: −1.17 ± 0.75 nM/ml
  Absolute change in NO: 28.45 ± 12.30 μM/L
  Absolute change in hsCRP: −2.10 ± 1.26 Mg/L
  Mean percentage change in MDA: −30.55 ± 19.81%
  Mean percentage change in NO: 88.44 ± 50.97%
  Mean percentage change in hsCRP: −64.90 ± 26.99%
[3]; Post TT, 12 weeks
  MDA: 2.37 ± 0.59 nM/ml
  NO: 63.69 ± 15.04 μM/L
  hsCRP: 0.97 ± 0.78 Mg/L
[3]; Pre TT
  MDA: 3.54 ± 0.85 nM/ml
  NO: 35.24 ± 9.71 μM/L
  hsCRP: 3.08 ± 1.38 Mg/L
[4]; Post treatment, 12 weeks
  Abs Change in RI(%) Post Salbutamol challenge: −11.04% and −11.04 ± 5.48 %
[4]; Pre treatment
  Abs Change in RI(%) Post Salbutamol challenge: −2.45% and −2.45 ± 0.64%
[4]; after 12 weeks of treatment
  Mean % change in Abs Change in RI (%) Post Salbutamol challenge: 336.1 ± 235.2%
[5]; 12 weeks
  Absolute change in HDL-C: 7.52 ± 7.00 mg/dL
  Absolute change in LDL-C: -47.48 ± 24.19 mg/dL
  Absolute change in Total Cholesterol: -48.11 ± 36.87 mg/dL
  Absolute change in Triglycerides: -48.54 ± 50.09 mg/dL
  Absolute change in VLDL-C: -5.30 ± 4.70 mg/dL
  Mean percentage change in HDL-C: 21.16 ± 20.49%
  Mean percentage change in LDL-C: −35.00 ± 14.34%
  Mean percentage change in Total Cholesterol: −24.68 ± 14.38%
  Mean percentage change in Triglycerides: −25.02 ± 25.34%
  Mean percentage change in VLDL-C: −18.24 ± 17.10%
[5]; Post TT, 12 weeks
  HDL-C: 47.95 ± 5.34 mg/dL
  LDL-C: 78.50 ± 16.71 mg/dL
  Total Cholesterol: 135.6 ± 26.94 mg/dL
  Triglycerides: 106.5 ± 30.79 mg/dL
  VLDL-C: 19.90 ± 3.64 mg/dL
[5]; Pre TT
  HDL-C: 40.44 ± 6.76 mg/dL
  LDL-C: 126.00 ± 34.90 mg/dL
  Total Cholesterol: 183.7 ± 37.41 mg/dL
  Triglycerides: 155.0 ± 56.51 mg/dL
  VLDL-C: 25.20 ± 6.57 mg/dL
